In patent publication US7964624B1, “Inhibitors of serine proteases” (priority 2005, dated 2011):

biological target: T1, full-length hepatitis C viral protein NS3•4A (Hepatitis C virus genotype 1a, UniProt P27958); test: biochemical; set-up: species or system HCV sub-type strain 1a; conditions: Enzyme Assay 2, HCV NS3 Peptide Cleavage Assay, apparent Ki
T1 construct: hexa-histidine (N); made in house; host or cells: Sf9 insect cells (baculovirus, pVL1392)

Question: `CCC[C@H](NC(=O)[C@@H]1C[C@]2(CC(c3cccc(Cl)c3)=NO2)CN1C(=O)[C@@H](NC(=O)[C@H]1CC1c1ccccc1)C(C)(C)OC)C(=O)C(=O)NC1CC1` (stereo partly drawn) [Compound 960] was tested. Which Ki did it give?
Answer: Its Ki is less than 100 nM.

Question: Which Ki does the source give for `CCC[C@H](NC(=O)[C@@H]1C[C@]2(CC(c3cccc(Cl)c3)=NO2)CN1C(=O)[C@@H](NC(=O)C1(c2ccccc2)CC1)C(C)(C)C)C(=O)C(=O)NC1CC1` [Compound 961] here?
Answer: Its Ki is greater than 500 nM.

Question: With `CCC[C@H](NC(=O)[C@@H]1C[C@]2(CC(N3CCc4ccccc4C3)=NO2)CN1C(=O)[C@@H](NC(=O)OC1CCCC1)C(C)(C)C)C(=O)C(=O)NC1CC1` [Compound 962] as the compound, how does the Ki read?
Answer: Its Ki is 100 to 500 nM.

Question: Which Ki does the source give for `CCC[C@H](NC(=O)[C@@H]1C[C@]2(CC(N3Cc4ccccc4C3)=NO2)CN1C(=O)[C@@H](NC(=O)OC1CCCC1)C(C)(C)C)C(=O)C(=O)NC1CC1` [Compound 964] here?
Answer: Its Ki is 100 to 500 nM.

Question: How did the Ki turn out when `CNC(=O)C(=O)[C@H](CC1CC1)NC(=O)[C@@H]1C[C@]2(CC(N3Cc4ccccc4C3)=NO2)CN1C(=O)[C@@H](NC(=O)OC1CCCC1)C(C)(C)C` [Compound 965] was run?
Answer: The Ki was 100 to 500 nM.

Question: How did the Ki turn out when `CNC(=O)C(=O)[C@H](CC1CC1)NC(=O)[C@@H]1C[C@]2(CC(c3cccc(Cl)c3)=NO2)CN1C(=O)[C@@H](NC(=O)C1(c2ccccc2)CC1)C(C)(C)C` [Compound 966] was run?
Answer: The Ki was greater than 500 nM.

Question: How did the Ki turn out when `[2H][C@@](CCC)(NC(=O)[C@@H]1C[C@]2(CC(c3cc(C)c(OC)c(C)c3)=NO2)CN1C(=O)[C@@H](NC(=O)CC1CCCCC1)C(C)(C)C)C(=O)C(=O)NC1CC1` [Compound 967] was run?
Answer: The Ki was less than 100 nM.

Question: With `CCC[C@H](NC(=O)[C@@H]1C[C@]2(CC(c3cc(Cl)ccc3OC)=NO2)CN1C(=O)[C@@H](NC(=O)[C@@H]1C[C@H]1c1ccccc1)C(C)(C)C)C(=O)C(=O)NC1CC1` [Compound 968] as the compound, how does the Ki read?
Answer: Its Ki is less than 100 nM.

Question: How did the Ki turn out when `CCC[C@H](NC(=O)[C@@H]1C[C@]2(CC(c3cc(Cl)ccc3OC)=NO2)CN1C(=O)[C@@H](NC(=O)[C@@H]1C[C@H]1c1ccccc1)C(C)(C)C)C(=O)C(=O)NC` [Compound 969] was run?
Answer: The Ki was less than 100 nM.

Question: With `CCNC(=O)C(=O)[C@H](CC1CC1)NC(=O)[C@@H]1C[C@]2(CC(c3cc(Cl)ccc3OC)=NO2)CN1C(=O)[C@@H](NC(=O)[C@@H]1C[C@H]1c1ccccc1)C(C)(C)C` [Compound 970] as the compound, how does the Ki read?
Answer: The Ki was less than 100 nM.

Question: How did the Ki turn out when `CCOc1cc(OC)c(C2=NO[C@]3(C2)C[C@@H](C(=O)N[C@@H](CC2CC2)C(=O)C(N)=O)N(C(=O)[C@@H](NC(=O)OC(C)(C)C)C(C)(C)C)C3)cc1Cl` [Compound 971] was run?
Answer: Its Ki is less than 100 nM.

Question: How did the Ki turn out when `CCOc1cc(OC)c(C2=NO[C@]3(C2)C[C@@H](C(=O)N[C@@H](CC2CC2)C(=O)C(N)=O)N(C(=O)[C@@H](NC(=O)CC2CCCCC2)C(C)(C)C)C3)cc1Cl` [Compound 972] was run?
Answer: Its Ki is less than 100 nM.

Question: How did the Ki turn out when `CCOc1c(C)cc(C2=NO[C@]3(C2)C[C@@H](C(=O)N[C@@H](CC2CC2)C(=O)C(N)=O)N(C(=O)[C@@H](NC(=O)OC(C)(C)C)C(C)(C)C)C3)cc1C` [Compound 974] was run?
Answer: Its Ki is less than 100 nM.

Question: With `CCOc1c(C)cc(C2=NO[C@]3(C2)C[C@@H](C(=O)N[C@@H](CC2CC2)C(=O)C(N)=O)N(C(=O)[C@@H](NC(=O)CC2CCCCC2)C(C)(C)C)C3)cc1C` [Compound 975] as the compound, how does the Ki read?
Answer: The Ki was less than 100 nM.

Question: For `CCC[C@H](NC(=O)[C@@H]1C[C@]2(CC(c3cc(C)c(OCC)c(C)c3)=NO2)CN1C(=O)[C@@H](NC(=O)[C@H]1C[C@@H]1c1ccccn1)C(C)(C)C)C(=O)C(=O)NC1CC1` [Compound 980], which Ki is on record?
Answer: The Ki was 100 to 500 nM.

Question: How did the Ki turn out when `CCC[C@H](NC(=O)[C@@H]1C[C@]2(CC(c3cc(C)c(OCC)c(C)c3)=NO2)CN1C(=O)[C@@H](NC(=O)[C@@H]1C[C@H]1c1ccccn1)C(C)(C)C)C(=O)C(=O)NC1CC1` [Compound 981] was run?
Answer: The Ki was less than 100 nM.

Question: `CCC[C@H](NC(=O)[C@@H]1C[C@]2(CC(c3cc(C)c(OCC)c(C)c3)=NO2)CN1C(=O)[C@@H](NC(=O)C1CC1c1ccncc1)C(C)(C)C)C(=O)C(=O)NC1CC1` (stereo partly drawn) [Compound 982] was tested. Which Ki did it give?
Answer: The Ki was 100 to 500 nM.

Question: Which Ki does the source give for `CCC[C@H](NC(=O)[C@@H]1C[C@]2(CC(c3cc(C)c(OCC)c(C)c3)=NO2)CN1C(=O)[C@@H](NC(=O)[C@@H]1C[C@H]1C(C)C)C(C)(C)C)C(=O)C(=O)NC1CC1` [Compound 983] here?
Answer: The Ki was less than 100 nM.
